Data from patent US6004967A, “Psoriasis treatment with quinazoline compounds” (priority 1997, dated 1999).
Like-named read-outs stand apart in the source and are kept apart here.

Columns and labels:
[1] = tested on: NIH 3T3 C7 cells engineered to express EGF-R (3T3-EGFR); assay: 3T3 cell growth assay, EGF-R C7 cells (3T3-EGFR); format: cell-based; conditions: Mus musculus, NIH3T3, 96 h, read-out: 3T3-EGFR IC50
Description: The efficacy of the above identified compounds in inhibiting or reducing EGF-R stimulated proliferation is measured by the 3T3 cell growth assay. The 3T3 growth assay was carried out as follows:
EGF-RC7 (NIH 3T3 C7 cells engineered to express EGF-R) and NIH 3T3C7 cells (as the control) were used for this assay. NIH3T3C7 cells were seeded at 2500 cells/well, […] in 10% CS+2 mM Glutamine/DMEM, in a 96 well plate; EGF-RC7 cells were seeded at 6000 cells/well, 100 μl/well in 2% FBS+2 mM Glutamine/DMEM, in a 96 well plate. Cells were incubated at 37° C., 5% CO2 overnight to allow for cell attachment to the plate.
A quinazoline compound was added to the cells at day 2. The compound was prepared in the appropriate growth medium (10% CS+2 mM glutamine in DMEM for NIH3T3C7 cells; 2% FBS+2 mM Glutamine in DMEM for EGF-RC7 cells) in a 96 well plate, and serially diluted. A total of 100 μl/well medium of the diluted compounds was added into the cells. The total volume of each well was 200 μl.
After the cells were treated with the compound for 4 days, the cells were washed with PBS and fixed with 200 μl/well ice-cold […] for one hour at 0-5° C.
Remove TCA and rinse wells 5 times with deionized water. Dry plates upside down with paper towels. Stain cells with 0.4% SRB at 100 μl/well for 10 minutes.
Pour off SRB and rinse plate 5 times with 1% acetic acid. Dry plate completely.
Solubilize the dye with 10 mM Tris-base at 100 μl/well for 10 minutes on a shaker.
Read the plate at dual wavelengths at 570 nm and 630 nm on Dynatech Elisa plate reader.

[2] = in vivo; conditions: single dose, IP, BALB/c female mice; for LD50 at 168 h: mouse, in vivo; for LD50 at 168 h / LD10: 7 days; for deaths: at the dose for LD10/LD50
[3] = Plasma concentration after single IP dose; format: in vivo; conditions: mouse, plasma, single dose 50 mg/kg IP, BALB/c nu/nu female mice; for concentration at […]: 15 min; for concentration at 1 h: 60 min
Description: **Single dose (50 mg/kg), IP, in BALB/c, nu/nu, female mice.

[4] = tested on: psoriatic human keratinocytes; assay: Growth of psoriatic human keratinocytes; format: cell-based
Description: Cells and Cell Culture. All tumor cell lines were obtained from the American Type Culture Collection (Rockville, Md.), unless otherwise specified. NIH3T3 mouse fibroblasts overexpressing the EGF receptor, IGF-1 receptor, insulin receptor, PDGF-b receptor, or a chimera of the EGF receptor extracellular domain fused to the Her-2 cytoplasmic domain were engineered using retroviral vectors. These cells will be referred to as 3T3-EGFR, 3T3-IGF1R, 3T3-IR, 3T3-PDGF-bR, and 3T3-EGFR/Her-2, respectively. All cell culture media and supplements were purchased from Gibco Life Technologies (Grand Island, N.Y.) unless otherwise specified. […] Cell lines were maintained under standard conditions in culture media recommended by the ATCC, unless otherwise specified. 3T3-EGFR, 3T3-PDGF-bR, and 3T3-EGFR/Her-2 cells were maintained in DMEM containing 10% calf serum (CS) and 2 mM GLN. 3T3-IGF1R and 3T3-IR cells were maintained in DMEM containing 10% FBS and 2 mM GLN. Keratinocytes were obtained from small biopsy specimens of split-thicknessskin from patients with psoriasis and from healthy control donors.
In vitro functional studies. […] Cell lines examined in receptor phosphorylation ELISA were 3T3-EGFR, 3T3-EGFR/Her-2, 3T3-PDGF-bR, 3T3-IGF1R, and 3T3-IR. For analysis of DNA replication (measured as incorporation of BrdU) and cell cycle progression, 3T3-EGFR and 3T3-PDGF-bR cell lines were used. Cell growth studies were carried out on A431 (EGF-R+), BT474 (Her-2+), and C6 (PDGF-bR+) cell lines.

[5] = molecular target: T1, human EGF-R (Homo sapiens, UniProt P00533); assay: EGF-R whole cell kinase assay (EGF-R-3T3 ELISA); format: cell-based; conditions: for IC50: whole cell, EGF-stimulated EGF-R phosphorylation, free base, read-out: EGFR Kinase IC50
T1 construct: expressed in transfected cells; host or cells: NIH3T3 clone C7 (mouse fibroblasts)
Description: The activity of the above identified compounds in inhibiting EGF-stimulatedEGF-R phosphorylation was measured in an ELISA assay.
EGF-R kinase activity (EGF-R-3T3 assay) in whole cells was measured as described below:
Coated plates are good for up to 10 days when stored at 4° C.
On day of use, remove coating buffer and replace with blocking buffer (5% Carnation Instant NonFat Dry Milk in PBS). Incubate the plate, shaking, at room temperature (about 23° C. to 25° C.) for 30 minutes. Just prior to use, remove blocking buffer and wash plate 4 times with TBST buffer.
EGF-R/C7 cell line was used for this assay.
Choose dishes having 80-90% confluence for the experiment. Trypsinize cells and stop reaction by adding 10% CS DMEM medium. Suspend cells in DMEM medium (10% calf serum (CS) DMEM medium) and centrifuge once at 1000 rpm, and once at room temperature for 5 minutes.
Resuspend cells in seeding medium (DMEM, 0.5% bovine serum), and count the cells using trypan blue. Viability above 90% is acceptable. Seed cells in DMEM medium (0.5% bovine serum) at a density of 10,000 cells per well, 100 μl per well, in a 96 well microtiter plate. Incubate seeded cells in 5% CO2 at 37° C. for about 40 hours.
Check seeded cells for contamination using an inverted microscope. Dilute drug stock (10 mg/ml in DMSO) 1:10 in DMEM medium, then transfer 5 μl to a test well for a final drug dilution of 1:200 and a final DMSO concentration of 1%. Control wells receive DMSO alone. Incubate in 5% CO2 at 37° C. for one hour.
Control wells receive DMEM alone. Incubate and shake at room temperature for 5 minutes.
Remove drug, EGF, and DMEM. Wash cells twice with PBS. Transfer HNTG* to cells, 100 μl per well. Place on ice for 5 minutes. Meanwhile, remove blocking buffer from other ELISA plate and wash with TBST as described above.
With a pipette tip securely fitted to a micropipettor, scrape cells from plate and homogenize cell material by repeatedly aspirating and dispensing the HNTG* lysis buffer. Transfer lysate to a coated, blocked, and washed ELISA plate. Incubate and shake at room temperature for one hour.
Remove lysate and wash 4 times with TBST. Transfer freshly diluted anti-phosphotyrosine (anti-Ptyr) antibody to ELISA plate at 100 μl per well. Incubate shaking at room temperature for 30 minutes in the presence of the anti-Ptyr antiserum (1:3000 dilution in TBST).
Remove the anti-Ptyr antibody and wash 4 times with TBST. Transfer the freshly diluted TAGO 30 anti-rabbit IgG antibody (anti-rabbit IgG antibody: 1:3000 dilution in TBST) to the ELISA plate at 100 μl per well. Incubate shaking at room temperature for 30 minutes.
Remove detection antibody and wash 4 times with TBST. Transfer freshly prepared ABTS/H2 O2 solution to ELISA plate, 100 μl per well. Incubate at room temperature for 20 minutes. ABTS/H2 O2 solution: 1.2 μl 30% H2 O2 in 10 ml ABTS stock.
Stop reaction by adding 50 μl 5N H2 SO4 (optional), and determine O.D. at 410 nm.
The maximal phosphotyrosine signal is determined by subtracting the value of the negative controls from the positive controls. The percent inhibition of phosphotyrosine content for extract-containing wells is then calculated after subtraction of the negative controls.

[6] = tested on: 3T3-PDGFR; assay: cell growth assay, PDGFR expressing cells (3T3-PDGFR), selectivity; format: cell-based; conditions: for IC50: 96 h, read-out: 3T3-PDGFR IC50; for PDGFR/EGFR IC50/IC50: ratio 3T3-PDGFR / 3T3-EGFR, 5760 min

T1 sequence (P00533 25-1210): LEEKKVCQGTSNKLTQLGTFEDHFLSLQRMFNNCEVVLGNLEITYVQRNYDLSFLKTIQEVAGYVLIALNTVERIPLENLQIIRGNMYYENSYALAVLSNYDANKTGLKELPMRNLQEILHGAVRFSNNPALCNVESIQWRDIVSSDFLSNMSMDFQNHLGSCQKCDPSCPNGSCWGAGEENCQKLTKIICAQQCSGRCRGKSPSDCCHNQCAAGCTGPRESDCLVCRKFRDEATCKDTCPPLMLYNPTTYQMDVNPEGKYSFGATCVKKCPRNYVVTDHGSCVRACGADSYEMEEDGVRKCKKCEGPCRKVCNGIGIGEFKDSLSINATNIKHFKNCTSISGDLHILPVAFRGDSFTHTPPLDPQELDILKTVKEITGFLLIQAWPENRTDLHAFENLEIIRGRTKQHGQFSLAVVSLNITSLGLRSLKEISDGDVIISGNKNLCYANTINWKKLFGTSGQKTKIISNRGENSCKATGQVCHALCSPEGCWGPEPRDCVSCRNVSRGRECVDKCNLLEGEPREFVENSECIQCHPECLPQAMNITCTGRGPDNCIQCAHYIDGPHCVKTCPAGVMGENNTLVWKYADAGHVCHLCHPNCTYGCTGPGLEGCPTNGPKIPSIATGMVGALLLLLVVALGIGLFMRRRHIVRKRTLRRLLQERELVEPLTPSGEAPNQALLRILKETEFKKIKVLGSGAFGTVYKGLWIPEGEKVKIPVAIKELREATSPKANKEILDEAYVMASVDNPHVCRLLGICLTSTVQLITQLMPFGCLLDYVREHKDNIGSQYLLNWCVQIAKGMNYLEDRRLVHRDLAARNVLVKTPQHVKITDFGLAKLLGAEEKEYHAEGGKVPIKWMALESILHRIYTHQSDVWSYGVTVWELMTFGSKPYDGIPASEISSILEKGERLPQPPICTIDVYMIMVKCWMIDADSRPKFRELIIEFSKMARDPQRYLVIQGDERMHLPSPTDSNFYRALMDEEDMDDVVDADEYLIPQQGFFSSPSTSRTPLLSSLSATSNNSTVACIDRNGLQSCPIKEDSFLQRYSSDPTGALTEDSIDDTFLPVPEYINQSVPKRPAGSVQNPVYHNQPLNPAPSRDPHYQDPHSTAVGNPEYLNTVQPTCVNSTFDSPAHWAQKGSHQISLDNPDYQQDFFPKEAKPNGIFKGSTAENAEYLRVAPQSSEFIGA

| Structure (SMILES) | IC50 [1] [nM] | LD50 at 168 h [2] [mg/kg] | LD10 [2] [mg/kg] | deaths [2] | concentration at 5 min [3] [ng/mL] | concentration at […] [3] [ng/mL] | concentration at 1 h [3] [ng/mL] | inhibition of psoriatic skin cell / keratinocyte proliferation in vitro (in words) [4] | inhibition of EGF-stimulated EGF-R phosphorylation (in words) [5] | IC50 [6] [µM] | IC50 ([1]; cell growth, 4 days, free base) [nM] | IC50 [5] [nM] | IC50 ([6]; cell growth, 4 days, free base) [µM] | PDGFR/EGFR IC50/IC50 [6] | LD40 ([2]; printed in LD10 and LD50 columns) [mg/kg] |
| --- | --- | --- | --- | --- | --- | --- | --- | --- | --- | --- | --- | --- | --- | --- | --- |
| COc1cc2ncnc(Nc3cccc(Cl)c3)c2cc1OC [A2, 4-(3-Chlorophenylamino)-6,7-dimethoxyquinazoline] | 110 | > 200 | > 200 | no | 11500 ± 4000 | 6500 ± 1300 | 3700 ± 500 | capable of inhibiting | able to inhibit | 18 |  |  |  |  |  |
| Cc1ccc2ncnc(Nc3cccc(Cl)c3)c2c1 [A3, 4-(3-Chlorophenylamino)-6-methylquinazoline] |  | > 400 |  |  | 7870 ± 980 | 3430 ± 820 | 1340 ± 110 | capable of inhibiting | able to inhibit |  | 2000 | 58 | 10 | 5 |  |
| COc1cc2ncnc(Nc3cccc(C(F)(F)F)c3)c2cc1OC [A4, 4-[3-(trifluoromethyl)phenylamino]-6,7-dimethoxyquinazoline] |  |  |  |  | 13300 ± 1500 | 12700 ± 3000 | 3900 | capable of inhibiting | able to inhibit |  | 400 | < 6 | 28 | 70 | 400 |
| COc1cc2ncnc(Nc3cccc(C#N)c3)c2cc1OC [A5, 4-(3-Cyanophenylamino)-6,7-dimethoxyquinazoline] |  | > 153 | > 153 | no | 950 ± 420 | 650 ± 190 | 130 ± 60 | capable of inhibiting | able to inhibit |  | 1500 | 200 | > 100 | 67 |  |
| Cc1ccc2ncnc(Nc3cccc(C(F)(F)F)c3)c2c1 [A6, 4-[3-(trifluoromethyl)phenylamino]-6-methylquinazoline] |  | > 400 | > 400 | no | 4450 ± 1380 | 2010 ± 530 | 540 ± 200 | capable of inhibiting | able to inhibit |  | 6000 | 900 | 30 | 5 |  |
